Reference: ChEMBL document CHEMBL1151611, “Antimicrobial principles from in vitro tissue culture of Peganum harmala” (J Nat Prod, 1984)
Active and inactive are the calls of the source. The rule behind the calls is not given here.

How the values were obtained:
Assay type in all cases: functional, organism-based
Escherichia coli = assay: Antimicrobial activity against Escherichia coli
Candida albicans = assay: Antimicrobial activity against Candida albicans
Staphylococcus aureus = assay: Antimicrobial activity against Staphylococcus aureus

Row | SMILES | Activity (Escherichia coli) | Activity (Candida albicans) | Activity (Staphylococcus aureus)
1 | O=c1c(O)c(-c2ccc(O)c(O)c2)oc2cc(O)cc(O)c12 | Active | inactive | Active
2 | O=c1c(O)c(-c2ccc(O)cc2)oc2cc(O)cc(O)c12 | Active | Active | Active
